“And” between values parts separate entries of the source, which are not always exact repeats. Equal values may be shown once.
Experiments:
Assay in all cases: Pot-culture stem and leaf treatment, fresh weight inhibition (Gowing method)
Format in all cases: in vivo
Cirsium setosum = test system: Cirsium setosum
From the text: (§1) Echinochloa crusgalli, Setaria viridis, Chenopodium album, Amaranthus retrollexus were collected from corn fields in Qingdao of Shandong Province. Sonchus brachyotus were collected from corn fields in Shenyang of Liaoning Province. Rhizoma Cyperi, Convolvulus arvensis were collected from corn fields in Shangqiu of Henan Province. Cirsium setosum were collected from corn fields in Xiantao of Hubei Province.
(§2) The above weeds were cultivated by a pot culture method. […] Full and uniform weed seeds were selected, soaked in warm water at 25° C. for 6 hours, and germinated in a 28° C. biochemical incubator (darkness). The weed seeds that had just germinated were evenly placed on the surface of the soil and then covered with 0.7 cm soil, and cultured in a controllable sunlight greenhouse after being treated with agents. A certain amount of water was added to the enamel pan regularly to keep the soil moist.
(§3) The culture was carried out in a controllable sunlight greenhouse at 18 to 30° C., in natural light, and relative humidity of 57% to 72%.
(§4) The technical materials were all dissolved in acetone, and diluted with an aqueous solution containing 0.1% emulsifier T-80. The dilution is performed as required.
(§5) 3 pots with 20 weed seeds per pot were treated in one treatment with […] per treatment, that is, a total of 60 weeds were treated in one treatment.
(§6) The agents were used for only once in the experiment. In the stage of weeds with 2 leaves and 1 core, the weeds were thinned out to maintain 15 weeds per pot and 45 weeds for each treatment, then continued to be cultured to 5-leaves and 1-core stage of Echinochloa crusgalli and Setaria viridis, and treated.
(§7) The well-cultured weeds were evenly placed on a platform with an area of 0.5 m^2, and a solution of agents was sprayed on the stems and leaves thereof by the 3WP-2000-type walking spray tower at a dosage of 30 kg/ha and at a spray pressure of 0.3 MPa. After all the solution was sprayed, the valve was closed. After 30 seconds, the door of the spray tower was opened, and the nutritional bowl was taken out. Then the valve was opened, and the spray tube was cleaned by spraying 50 ml of water.
(§8) A pot-culture method was employed. For the cultivation of weeds, please refer to the Section 1.1, and “Pesticide guidelines for laboratory bioactivity tests—herbicides”. As to a method for applying agents, please refer to the section 2.3.2, that is, a method for treating stems and leaves was employed.
(§9) A method for investigating absolute number was employed, wherein whole seedlings of survival weeds were cut off with a blade along the soil surface, and the fresh weight of the weeds was weighed with an analytical balance. For dead weeds, the fresh weight thereof was zero.
(§10) The investigation was performed after 20 days of the treatment for only once.
(§11) An optimum ratio of the two active ingredients was determined by the actual control effect, characteristics of herbicides, and balance of a corresponding formula.
(§12) Wherein, in the formula, X represented the fresh weight inhibition rate of A in a dosage of P, and Y represented the fresh weight inhibition rate of the active ingredient B in a dosage of Q.

Convolvulus arvensis = test system: Convolvulus arvensis
From the text: as §1
(§13) The above weeds were cultivated by a pot culture method. […] Full and uniform weed seeds were selected, soaked in warm water at 25° C. for 6 hours, and germinated in a 28° C. biochemical incubator (darkness). […] A certain amount of water was added to the enamel pan regularly to keep the soil moist.
as §4, §5, §6, §7, §8, §9, §10, §12

Setaria viridis = test system: Setaria viridis
From the text: as §1, §2, §3, §4, §5, §6, §7, §8, §9, §10, §11, §12

Echinochloa crusgalli = test system: Echinochloa crusgalli
From the text: as §1, §2, §3, §4, §5, §6, §7, §8, §9, §10, §11, §12

Chenopodium album = conditions: for actual fresh weight inhibition rate (%): Chenopodium album
From the text: as §1, §13, §4, §5, §6, §7, §8, §9, §10, §12

Rhizoma Cyperi = test system: Rhizoma Cyperi
From the text: as §1, §2, §3, §4, §5, §6, §7, §8, §9, §10, §11, §12

Sonchus brachyotus = test system: Sonchus brachyotus
From the text: as §1, §13, §4, §5, §6, §7, §8, §9, §10, §12

Amaranthus retrollexus = conditions: Amaranthus retroflexus
From the text: as §1, §13, §4, §5, §6, §7, §8, §9, §10, §12

[1] = dosage of active ingredient 45 g/hm^2
[2] = dosage of active ingredient 90 g/hm^2
[3] = dosage of active ingredient 180 g/hm^2
[4] = dosage of active ingredient 112.5 g/hm^2
[5] = dosage of active ingredient 225 g/hm^2
[6] = dosage of active ingredient 450 g/hm^2

Compound: Nc1c(Cl)c(F)nc(OCC(=O)O)c1Cl [fluroxypyr]
- actual fresh weight inhibition rate (Cirsium setosum; dosage 60 g/hm^2): 56.2%
- actual fresh weight inhibition rate (Cirsium setosum; dosage 120 g/hm^2): 79.2%
- actual fresh weight inhibition rate (Cirsium setosum; dosage 240 g/hm^2): 95.4%
- actual fresh weight inhibition rate (Convolvulus arvensis; dosage 60 g/hm^2): 63.2%
- actual fresh weight inhibition rate (Convolvulus arvensis; dosage 120 g/hm^2): 78.2%
- actual fresh weight inhibition rate (Convolvulus arvensis; dosage 240 g/hm^2): 92.2%

Compound: CCNc1nc(Cl)nc(NC(C)(C)C)n1 [terbuthylazine]
- actual fresh weight inhibition rate (Setaria viridis; dosage 375 g/hm^2): 25.2%
- actual fresh weight inhibition rate (Setaria viridis; dosage 750 g/hm^2): 30.6%
- actual fresh weight inhibition rate (Setaria viridis; dosage 1500 g/hm^2): 42.3%
- actual fresh weight inhibition rate (Echinochloa crusgalli; dosage 375 g/hm^2): 31.4%
- actual fresh weight inhibition rate (Echinochloa crusgalli; dosage 750 g/hm^2): 42.1%
- actual fresh weight inhibition rate (Echinochloa crusgalli; dosage 1500 g/hm^2): 51.7%

Compound: COc1cc(OC)nc(NC(=O)NS(=O)(=O)c2ncccc2C(=O)N(C)C)n1 [nicosulfuron]
- actual fresh weight inhibition rate (Setaria viridis; dosage 15 g/hm^2): 45.7%
- actual fresh weight inhibition rate (Setaria viridis; dosage 30 g/hm^2): 79.6%
- actual fresh weight inhibition rate (Setaria viridis; dosage 60 g/hm^2): 100%
- actual fresh weight inhibition rate (Echinochloa crusgalli; dosage 15 g/hm^2): 33.1%
- actual fresh weight inhibition rate (Echinochloa crusgalli; dosage 30 g/hm^2): 74.5%
- actual fresh weight inhibition rate (Echinochloa crusgalli; dosage 60 g/hm^2): 100%

Compound: COc1c(Cl)ccc(Cl)c1C(=O)O [dicamba]
- actual fresh weight inhibition rate (Convolvulus arvensis; dosage 75 g/hm^2): 64.4%
- actual fresh weight inhibition rate (Convolvulus arvensis; dosage 150 g/hm^2): 78.9%
- actual fresh weight inhibition rate (Convolvulus arvensis; dosage 300 g/hm^2): 92.8%
- actual fresh weight inhibition rate (Chenopodium album; dosage 75 g/hm^2): 66.2%
- actual fresh weight inhibition rate (Chenopodium album; dosage 150 g/hm^2): 85.3%
- actual fresh weight inhibition rate (Chenopodium album; dosage 300 g/hm^2): 100%

Compound: CCn1ncc(C(=O)c2ccc(S(C)(=O)=O)c(COCC(F)(F)F)c2Cl)c1OC(=O)c1cn(C)nc1C [A1]
- actual fresh weight inhibition rate (Setaria viridis; dosage 45 g/hm^2): 45.7% and 42.1% and 39.9%
- actual fresh weight inhibition rate (Setaria viridis; dosage 90 g/hm^2): 81.6% and 80.3% and 81.2%
- actual fresh weight inhibition rate (Setaria viridis; dosage 180 g/hm^2): 100%
- actual fresh weight inhibition rate (Echinochloa crusgalli; dosage 45 g/hm^2): 54.2% and 42.4%
- actual fresh weight inhibition rate (Echinochloa crusgalli; dosage 90 g/hm^2): 82.1% and 83.5%
- actual fresh weight inhibition rate (Echinochloa crusgalli; dosage 180 g/hm^2): 100%
- actual fresh weight inhibition rate (Cirsium setosum; dosage 45 g/hm^2): 19.3%
- actual fresh weight inhibition rate (Cirsium setosum; dosage 90 g/hm^2): 20.4%
- actual fresh weight inhibition rate (Cirsium setosum; dosage 180 g/hm^2): 38.5%
- actual fresh weight inhibition rate (Rhizoma Cyperi; dosage 45 g/hm^2): 22.8%
- actual fresh weight inhibition rate (Rhizoma Cyperi; dosage 90 g/hm^2): 31.1%
- actual fresh weight inhibition rate (Rhizoma Cyperi; dosage 180 g/hm^2): 44.2%
- actual fresh weight inhibition rate (Sonchus brachyotus; dosage 45 g/hm^2): 32.1%
- actual fresh weight inhibition rate (Sonchus brachyotus; dosage 90 g/hm^2): 53.2%
- actual fresh weight inhibition rate (Sonchus brachyotus; dosage 180 g/hm^2): 78.8%
- actual fresh weight inhibition rate (Convolvulus arvensis; dosage 45 g/hm^2): 23.2%
- actual fresh weight inhibition rate (Convolvulus arvensis; dosage 90 g/hm^2): 38.9%
- actual fresh weight inhibition rate (Convolvulus arvensis; dosage 180 g/hm^2): 48.2%
- actual fresh weight inhibition rate (%) (Amaranthus retrollexus; [1]): 45.7%
- actual fresh weight inhibition rate (%) (Amaranthus retrollexus; [2]): 81.6%
- actual fresh weight inhibition rate (%) (Amaranthus retrollexus; [3]): 100%
- actual fresh weight inhibition rate (%) (Chenopodium album; [1]): 19.1%
- actual fresh weight inhibition rate (%) (Chenopodium album; [2]): 30.2%
- actual fresh weight inhibition rate (%) (Chenopodium album; [3]): 48.7%
- actual fresh weight inhibition rate (Chenopodium album; dosage 45 g/hm^2): 19.1%
- actual fresh weight inhibition rate (Chenopodium album; dosage 90 g/hm^2): 30.2%
- actual fresh weight inhibition rate (Chenopodium album; dosage 180 g/hm^2): 48.7%

Compound: CCCCCCCC(=O)Oc1c(Br)cc(C#N)cc1Br [bromoxynil octanoate]
- actual fresh weight inhibition rate (Sonchus brachyotus; dosage 112.5 g/hm^2): 56.2%
- actual fresh weight inhibition rate (Sonchus brachyotus; dosage 225 g/hm^2): 78.3%
- actual fresh weight inhibition rate (Sonchus brachyotus; dosage 450 g/hm^2): 99.2%
- actual fresh weight inhibition rate (Convolvulus arvensis; dosage 112.5 g/hm^2): 58.9%
- actual fresh weight inhibition rate (Convolvulus arvensis; dosage 225 g/hm^2): 79.2%
- actual fresh weight inhibition rate (Convolvulus arvensis; dosage 450 g/hm^2): 98.1%

Compound: CSc1nnc(C(C)(C)C)c(=O)n1N [metribuzin]
- actual fresh weight inhibition rate (Setaria viridis; dosage 112.5 g/hm^2): 21.5%
- actual fresh weight inhibition rate (Setaria viridis; dosage 225 g/hm^2): 33.6%
- actual fresh weight inhibition rate (Setaria viridis; dosage 450 g/hm^2): 43.5%
- actual fresh weight inhibition rate (Echinochloa crusgalli; dosage 112.5 g/hm^2): 22.4%
- actual fresh weight inhibition rate (Echinochloa crusgalli; dosage 225 g/hm^2): 32.1%
- actual fresh weight inhibition rate (Echinochloa crusgalli; dosage 450 g/hm^2): 42.5%

Compound: COC(=O)c1c(Cl)nn(C)c1S(=O)(=O)NC(=O)Nc1nc(OC)cc(OC)n1 [halosulfuron-methyl]
- actual fresh weight inhibition rate (Rhizoma Cyperi; dosage 15 g/hm^2): 67.2%
- actual fresh weight inhibition rate (Rhizoma Cyperi; dosage 30 g/hm^2): 89.3%
- actual fresh weight inhibition rate (Rhizoma Cyperi; dosage 60 g/hm^2): 100%

Compound: CCNc1nc(Cl)nc(NC(C)C)n1 [atrazine]
- actual fresh weight inhibition rate (Setaria viridis; dosage 375 g/hm^2): 21.3%
- actual fresh weight inhibition rate (Setaria viridis; dosage 750 g/hm^2): 31.4%
- actual fresh weight inhibition rate (Setaria viridis; dosage 1500 g/hm^2): 41.4%
- actual fresh weight inhibition rate (Echinochloa crusgalli; dosage 375 g/hm^2): 20.3%
- actual fresh weight inhibition rate (Echinochloa crusgalli; dosage 750 g/hm^2): 34.2%
- actual fresh weight inhibition rate (Echinochloa crusgalli; dosage 1500 g/hm^2): 45.1%

Compound: CC(C)c1nn(C(=O)NC(C)(C)C)c(=O)n1N [amicarbazone]
- actual fresh weight inhibition rate (%) (Amaranthus retrollexus; [4]): 21.6%
- actual fresh weight inhibition rate (%) (Amaranthus retrollexus; [5]): 31.9%
- actual fresh weight inhibition rate (%) (Amaranthus retrollexus; [6]): 41.8%
- actual fresh weight inhibition rate (%) (Chenopodium album; [4]): 36.5%
- actual fresh weight inhibition rate (%) (Chenopodium album; [5]): 45.9%
- actual fresh weight inhibition rate (%) (Chenopodium album; [6]): 64.3%

Compound: CCc1cccc(C)c1N(C(=O)CCl)[C@@H](C)COC [s-metolachlor]
- actual fresh weight inhibition rate (Setaria viridis; dosage 375 g/hm^2): 2.9%
- actual fresh weight inhibition rate (Setaria viridis; dosage 750 g/hm^2): 3.9%
- actual fresh weight inhibition rate (Setaria viridis; dosage 1500 g/hm^2): 6.2%
- actual fresh weight inhibition rate (Echinochloa crusgalli; dosage 375 g/hm^2): 2.5%
- actual fresh weight inhibition rate (Echinochloa crusgalli; dosage 750 g/hm^2): 3.4%
- actual fresh weight inhibition rate (Echinochloa crusgalli; dosage 1500 g/hm^2): 5.6%

Compound: CCCCOCN(C(=O)CCl)c1c(CC)cccc1CC [butachlor]
- actual fresh weight inhibition rate (Setaria viridis; dosage 375 g/hm^2): 2.7%
- actual fresh weight inhibition rate (Setaria viridis; dosage 750 g/hm^2): 3.8%
- actual fresh weight inhibition rate (Setaria viridis; dosage 1500 g/hm^2): 5.9%
- actual fresh weight inhibition rate (Echinochloa crusgalli; dosage 375 g/hm^2): 2.4%
- actual fresh weight inhibition rate (Echinochloa crusgalli; dosage 750 g/hm^2): 3.9%
- actual fresh weight inhibition rate (Echinochloa crusgalli; dosage 1500 g/hm^2): 5.4%

Compound: O=C(Nc1ccc(F)cc1F)c1cccnc1Oc1cccc(C(F)(F)F)c1 [diflufenican]
- actual fresh weight inhibition rate (Setaria viridis; dosage 75 g/hm^2): 3.9%
- actual fresh weight inhibition rate (Setaria viridis; dosage 150 g/hm^2): 8.3%
- actual fresh weight inhibition rate (Setaria viridis; dosage 300 g/hm^2): 10.5%
- actual fresh weight inhibition rate (Echinochloa crusgalli; dosage 75 g/hm^2): 7.2%
- actual fresh weight inhibition rate (Echinochloa crusgalli; dosage 150 g/hm^2): 9.4%
- actual fresh weight inhibition rate (Echinochloa crusgalli; dosage 300 g/hm^2): 10.3%

Compound: CC(C)N1C(=O)c2ccccc2NS1(=O)=O [bentazone]
- actual fresh weight inhibition rate (Rhizoma Cyperi; dosage 150 g/hm^2): 65.3%
- actual fresh weight inhibition rate (Rhizoma Cyperi; dosage 300 g/hm^2): 83.5%
- actual fresh weight inhibition rate (Rhizoma Cyperi; dosage 600 g/hm^2): 92.1%
- actual fresh weight inhibition rate (Chenopodium album; dosage 150 g/hm^2): 56.5%
- actual fresh weight inhibition rate (Chenopodium album; dosage 300 g/hm^2): 75.9%
- actual fresh weight inhibition rate (Chenopodium album; dosage 600 g/hm^2): 94.3%

From US10729133B2, “Cornfield herbicidal composition and application thereof” (priority 2016, dated 2020)
